Data reported in patent US20240139189A1, “N6-ADENOSINE-[…] INHIBITORS IN CANCER TREATMENT” (priority 2021, published 2024).
In brackets after ≈: the same amount, converted by molar mass.

Tests used:
[1] = biological target: METTL3 (Homo sapiens (Human), UniProt Q86U44); assay: TR-FRET biochemical assay (time resolved-Förster resonance energy transfer); conditions: for LLE (lipophilic ligand efficiency, pIC50-logP): calculated with DataWarrior; for potency reduction / loss: relative to parent compound
Excerpt: The bonds formed are depicted in red. The IC50 values refer to the biochemical assay based on time resolved-Forster resonance energy transfer (TR-FRET). B) Superimposition of compounds 1 (grey, from X-ray with METTL3, PDB code: 7NHI) and 2 (cyan, drawn in Pymol).

[2] = Kinetic solubility
[3] = Rat liver microsomes
[4] = in vitro; conditions: rat, microsomes
[5] = biological target: METTL3/METTL14 (Homo sapiens (Human), UniProt Q86U44); assay: Protein thermal shift assay, METTL3/METTL14; conditions: read-out: ΔTm
[6] = IC50 data for N6-adenosine-methyltransferase

METTL3, sequence (Q86U44 whole entry, looked up): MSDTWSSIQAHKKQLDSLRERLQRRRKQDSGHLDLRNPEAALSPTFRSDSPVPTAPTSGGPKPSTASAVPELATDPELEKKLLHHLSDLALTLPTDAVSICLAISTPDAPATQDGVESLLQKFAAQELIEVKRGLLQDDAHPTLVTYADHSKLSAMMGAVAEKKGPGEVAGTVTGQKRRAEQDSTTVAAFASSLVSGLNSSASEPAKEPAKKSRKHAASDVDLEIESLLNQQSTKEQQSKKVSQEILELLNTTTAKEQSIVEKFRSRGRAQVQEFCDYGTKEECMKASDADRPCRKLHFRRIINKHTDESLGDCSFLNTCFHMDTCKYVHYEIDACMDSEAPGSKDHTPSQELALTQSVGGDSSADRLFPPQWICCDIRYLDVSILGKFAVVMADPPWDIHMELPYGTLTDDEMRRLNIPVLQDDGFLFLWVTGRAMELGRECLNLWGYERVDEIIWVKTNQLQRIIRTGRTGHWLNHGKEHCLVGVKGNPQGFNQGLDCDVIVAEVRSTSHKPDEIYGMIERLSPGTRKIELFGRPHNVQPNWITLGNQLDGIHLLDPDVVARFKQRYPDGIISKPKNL
METTL3, sequence (Q9HCE5 whole entry partner, looked up): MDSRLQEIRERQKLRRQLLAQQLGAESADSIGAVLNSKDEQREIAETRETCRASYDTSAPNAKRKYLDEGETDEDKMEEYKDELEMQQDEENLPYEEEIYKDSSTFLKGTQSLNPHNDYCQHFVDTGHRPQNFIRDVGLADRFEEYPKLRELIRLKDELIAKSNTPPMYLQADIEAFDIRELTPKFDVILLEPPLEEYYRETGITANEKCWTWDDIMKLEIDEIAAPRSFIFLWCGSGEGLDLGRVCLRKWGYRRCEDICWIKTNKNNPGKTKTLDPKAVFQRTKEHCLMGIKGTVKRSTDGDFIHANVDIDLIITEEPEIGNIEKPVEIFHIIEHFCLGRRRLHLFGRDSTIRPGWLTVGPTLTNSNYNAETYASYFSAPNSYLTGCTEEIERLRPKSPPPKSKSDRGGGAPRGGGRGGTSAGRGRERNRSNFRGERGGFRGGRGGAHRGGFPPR
METTL3/METTL14, sequence (Q86U44 whole entry, looked up): as the sequence (Q86U44 whole entry, looked up) above
METTL3/METTL14, sequence (Q9HCE5 whole entry partner, looked up): as the sequence (Q9HCE5 whole entry partner, looked up) above

SMILES	LE (ligand efficiency) [1]	IC50 ([1]; TR-FRET assay) [nM]	LLE (lipophilic ligand efficiency, pIC50-logP) [1]	IC50 [1, 6] [nM]	further results
CNc1cc(N2CCCC(O)(CNC(=O)c3ccc(CN4CCC(C)(C)CC4)cc3)C2)ncn1 (stereo not shown) [Compound 1]	0.21 kcal.mol^-1.heavy atom count^-1	8200	2.5	–	–
CC1(C)CCN(Cc2ccc(C(=O)NC3CCN(c4cc(NCc5ccccc5)ncn4)CC3)cn2)CC1 [Compound 6]	0.20 kcal.mol^-1.heavy atom count^-1	3600	1.7	–	–
CC1(C)CCN(Cc2ccc(N3CCOC4(CCN(c5cc(NCc6ccccc6)ncn5)CC4)C3)cn2)CC1 [Compound 7, N-Benzyl-6-(4-(6-((4,4-dimethylpiperidin-1-yl)methyl)pyridin-3-yl)-1-oxa-4,9-diazaspiro[5.5]undecan-9-yl)pyrimidin-4-amine]	–	280	–	280	–
CC1(C)CCN(Cc2ccc(N3CC(=O)NC4(CCN(c5cc(NCc6ccccc6)ncn5)CC4)C3)cn2)CC1 [Compound 8, 9-(6-(Benzylamino)pyrimidin-4-yl)-4-(6-((4,4-dimethylpiperidin-1-yl)methyl)pyridin-3-yl)-1,4,9-triazaspiro[5.5]undecan-2-one]	–	37	–	37	–
CC1(C)CCN(Cc2ccc(N3CC(=O)NC4(CCN(c5cc(NCc6ccccc6)ncn5)CC4)C3)cc2)CC1 [Compound 9, 9-(6-(Benzylamino)pyrimidin-4-yl)-4-(4-((4,4-dimethylpiperidin-1-yl)methyl)phenyl)-1,4,9-triazaspiro[5.5]undecan-2-one]	–	26	–	26	–
CNc1cc(N2CC3(CN(c4ccc(CN5CCC(C)(C)CC5)cc4)CC(=O)N3)C2)ncn1 [Compound 11, 8-(4-((4,4-Dimethylpiperidin-1-yl)methyl)phenyl)-2-(6-(methylamino)pyrimidin-4-yl)-2,5,8-triazaspiro[3.5]nonan-6-one]	0.26 kcal.mol^-1.heavy atom count^-1	440	4.5	440	potency reduction / loss [1]: 5 fold; Kinetic solubility [2]: 86 µM; RLM t1/2 [3]: 70 min
CNc1cc(N2CCC3(CC2)CN(c2ccc(CN4CCC(C)(C)CC4)cc2)C(=O)N3)ncn1 [Compound 12]	0.23 kcal.mol^-1.heavy atom count^-1	1800	2.6	–	potency reduction / loss [1]: 20 fold
CN(C)c1cc(N2CCC3(CC2)CN(c2ccc(CN4CCC(C)(C)CC4)cc2)CC(=O)N3)ncn1 [Compound 14]	0.23 kcal.mol^-1.heavy atom count^-1	970	3.2	–	–
CC(C)Nc1cc(N2CCC3(CC2)CN(c2ccc(CN4CCC(C)(C)CC4)cc2)CC(=O)N3)ncn1 [Compound 15, 4-(4-((4,4-Dimethylpiperidin-1-yl)methyl)phenyl)-9-(6-(isopropylamino)pyrimidin-4-yl)-1,4,9-triazaspiro[5.5]undecan-2-one]	0.24 kcal.mol^-1.heavy atom count^-1	330	3.2	330	–
CC1(C)CCN(Cc2ccc(N3CC(=O)NC4(CCN(c5cc(NC6CC6)ncn5)CC4)C3)cc2)CC1 [Compound 16, 9-(6-(Cyclopropylamino)pyrimidin-4-yl)-4-(4-((4,4-dimethylpiperidin-1-yl)methyl)phenyl)-1,4,9-triazaspiro[5.5]undecan-2-one]	–	84	–	84	–
CC1(C)CCN(Cc2ccc(N3CC(=O)NC4(CCN(c5ncnc6[nH]ccc56)CC4)C3)cc2)CC1 [Compound 17, 4-(4-((4,4-Dimethylpiperidin-1-yl)methyl)phenyl)-9-(7H-pyrrolo[2,3-d]pyrimidin-4-yl)-1,4,9-triazaspiro[5.5]undecan-2-one]	–	61	–	61	–
CC1(C)CCN(Cc2ccc(N3CC(=O)NC4(CCN(c5ccnc6[nH]ccc56)CC4)C3)cc2)CC1 [Compound 18]	0.20 kcal.mol^-1.heavy atom count^-1	4500	2.3	–	potency reduction / loss [1]: 74 fold
CC1(C)CCN(Cc2ccc(N3CC(=O)NC4(CCN(c5nc(Cl)nc6[nH]ccc56)CC4)C3)cc2)CC1 [Compound 19, 9-(2-Chloro-7H-pyrrolo[2,3-d]pyrimidin-4-yl)-4-(4-((4,4-dimethylpiperidin-1-yl)methyl)phenyl)-1,4,9-triazaspiro[5.5]undecan-2-one]	0.28 kcal.mol^-1.heavy atom count^-1	24	3.9	24	Kinetic solubility [2]: 45 µM; solubility kinetic ([2]; kinetic from dmso stock): 45 µM (≈ 23.5 µg/mL); RLM t1/2 [3]: 32 min; half-life [4]: 32 min
CNc1cc(N2CCC3(CC2)CN(c2ccc(CN4CCC(C)(C)CC4)cc2F)CC(=O)N3)ncn1 [Compound 20, 4-(4-((4,4-Dimethylpiperidin-1-yl)methyl)-2-fluorophenyl)-9-(6-(methylamino)pyrimidin-4-yl)-1,4,9-triazaspiro[5.5]undecan-2-one]	–	38	–	38	–
CNc1cc(N2CCC3(CC2)CN(c2ccc(CN4CCC(C)(C)CC4)c(F)c2)CC(=O)N3)ncn1 [Compound 21, 4-(4-((4,4-Dimethylpiperidin-1-yl)methyl)-3-fluorophenyl)-9-(6-(methylamino)pyrimidin-4-yl)-1,4,9-triazaspiro[5.5]undecan-2-one]	–	32	–	32	–
CNc1cc(N2CCC3(CC2)CN(c2cc(F)c(CN4CCC(C)(C)CC4)cc2F)CC(=O)N3)ncn1 [Compound 22, 4-(4-((4,4-Dimethylpiperidin-1-yl)methyl)-2,5-difluorophenyl)-9-(6-(methylamino)pyrimidin-4-yl)-1,4,9-triazaspiro[5.5]undecan-2-one]	–	–	–	–	ΔTm at 100 µM [5]: 4.7 °C
Nc1ncnc2c1ncn2[C@@H]1O[C@H](CSCC[C@H](N)C(=O)O)[C@@H](O)[C@H]1O [SAH, S-adenosyl-L-homocysteine, reference compound]	–	–	–	–	ΔTm at 100 µM [5]: 2.8 °C
